According to patent US7235518B2, “Fabric care compositions comprising hueing dye” (The Procter & Gamble Company, priority 2004, dated 2007):

What was measured:
[1] = Water solubility of brightener; type: physicochemical
Source text: Brighteners should have some water solubility for easy incorporation into the fabric conditioning composition. […] Fluorescent whitening agents, generally due to their low water solubility, are difficult to incorporate into liquid fabric conditioning compositions. Often it is advantageous to post-add brighteners to a finished base product. One convenient way to do this is to make a brighteners premix.

[2] = Chemical stability of brightener in acidic product matrix; type: physicochemical; details: biodegradable fabric conditioning compositions, pH from about 3 to about 4

## O=S(=O)(O)c1ccccc1C=Cc1ccc(-c2ccc(C=Cc3ccccc3S(=O)(=O)O)cc2)cc1.[Na].[Na] [Tinopal CBS-X, Disodium 4,4′-bis-(2-sulfostyryl) biphenyl]
[1]; 25 C
  water solubility: 2.5%
[1]; 25° C.
  water solubility: about 2.5 weight percent
[2]
  chemical stability in the acidic product matrix: better than some other brighteners
